Source: US20150031655A1, “COMBINATION OF LIVER X RECEPTOR MODULATOR AND ESTROGEN RECEPTOR MODULATOR FOR THE TREATMENT OF AGE-RELATED DISEASES” (UNIVERSITY OF NORTH DAKOTA, priority 2011, published 2015)

Legend:
[1] = test system: α-synuclein; test: Western blot of α-synuclein protein levels in SH-SY5Y cells; format: cell-based, human; conditions: for increase in α-synuclein protein / expression levels / 27-OHC-induced increase in α-synuclein protein levels: 24 h; for 27-OHC-induced increase in α-synuclein protein levels: co-treatment with 10 μM 27-OHC
Method: (§1) Human neuroblastoma SH-SY5Y cells were grown in DMEM/F12 medium containing 10% fetal bovine serum (FBS) and 1% antibiotic/antimycotic mix. Cells were maintained at 37° C. in a saturated humidity atmosphere containing 95% air and 5% CO2.
(§2) Treated SH-SY5Y cells were washed with PBS and trypsinized to collect the cells and centrifuged at 5000 g. The pellet was washed again with PBS and homogenized in NE-PER tissue protein extraction reagent (Thermo Scientific, Rockford, Ill.) supplemented with protease and phosphatase inhibitors. Protein concentrations from the cytosolic and nuclear homogenates were determined with BCA protein assay.
(§3) Proteins (10 μg) were separated on SDS-PAGE gels, transferred to a polyvinylidene difluoride membrane (BioRad, Hercules, Calif.), and incubated with the following monoclonal antibodies: anti-TH mouse antibody (1:1000; Sigma Aldrich, Saint Louis, Mo.), anti-α-synuclein mouse antibody (1:500; Chemicon, Temecula, Calif.), anti-ERα rabbit antibody (1:500; Abcam, Cambridge, Mass.), anti-ERβ rabbit antibody (1:200; Upstate, Lake Placid, N.Y.), anti-LXRα rabbit antibody (1:500; Abcam, Cambridge, Mass.), anti-LXRβ mouse antibody (1:500; Abcam, Cambridge, Mass.).
(§4) β-actin and Lamin A were used as a gel loading control for cytosolic homogenates and nuclear homogenates respectively. The blots were developed with enhanced chemiluminescence (Immmun-star HRP chemiluminescent kit, Bio-Rad, Hercules, Calif.). Bands were visualized on a polyvinylidene difluoride membrane and analyzed by LabWorks 4.5 software on a UVP Bioimaging System (Upland, Calif.). Quantification of results was performed by densitometry and the results analyzed as total integrated densitometric values (arbitrary units).

[2] = test system: α-synuclein mRNA; test: Real time RT-PCR of α-synuclein mRNA in SH-SY5Y cells; format: cell-based, human; conditions: for increase in α-synuclein mRNA expression: 24 h; for 27-OHC-induced increase in α-synuclein mRNA: co-treatment with 10 μM 27-OHC
Method: as §1
Total RNA was isolated and extracted from treated cells using the 5 prime “PerfectPure RNA tissue kit” (5 Prime, Inc., Gaithersburg, Md.). RNA estimation was performed using “Quant-iT RNA Assay Kit” using a Qubit fluorometer according to the manufacturer's protocol (Invitrogen, Carlsbad, Calif.). cDNA was synthesized by reverse transcribing 1 μg of extracted RNA using an “iScript cDNA synthesis kit” (BioRad, Hercules, Calif.). The oligomeric primers (Sigma, St Louis, Mo.) used to amplify the TH mRNA and α-synuclein mRNA are enumerated in Table 1. The cDNA amplification was performed using an iQ SYBR Green Supermix kit following the manufacturer's instructions (BioRad, Hercules, Calif.). The amplification was performed using an iCycler iQ Multicolor Real Time PCR Detection System (BioRad, Hercules, Calif.). The expression of specific TH and α-synuclein transcripts amplified were normalized to the expression of glyceraldehyde-3-phosphate dehydrogenase (GAPDH).

[3] = target: T1, LXRα (Homo sapiens, UniProt Q13133); test: Western blot of LXRα levels in the nucleus, SH-SY5Y cells; format: cell-based; conditions: for LXRα protein levels in the nucleus: 24 h, treatment alone vs control; for 27-OHC-induced increase in LXRα in the nucleus: co-treatment with 10 μM 27-OHC
T1 construct: endogenous in cells; host or cells: SH-SY5Y human neuroblastoma cells
T1 sequence (Q13133 1-447): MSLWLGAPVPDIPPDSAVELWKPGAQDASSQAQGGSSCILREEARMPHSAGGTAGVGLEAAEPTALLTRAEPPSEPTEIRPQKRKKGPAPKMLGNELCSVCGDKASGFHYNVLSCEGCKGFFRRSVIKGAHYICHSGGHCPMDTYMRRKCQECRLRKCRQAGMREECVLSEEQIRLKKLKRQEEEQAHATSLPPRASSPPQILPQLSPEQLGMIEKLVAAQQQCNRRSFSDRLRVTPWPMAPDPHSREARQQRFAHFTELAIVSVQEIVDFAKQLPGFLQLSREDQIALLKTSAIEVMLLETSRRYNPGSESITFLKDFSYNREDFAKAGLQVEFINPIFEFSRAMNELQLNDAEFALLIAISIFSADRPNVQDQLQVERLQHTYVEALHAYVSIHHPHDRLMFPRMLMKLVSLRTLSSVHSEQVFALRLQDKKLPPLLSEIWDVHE
Method: as §1, §2, §3, §4

Row | SMILES | increase in α-synuclein protein / expression levels ([1]; treatment alone vs control) [fold] | increase in α-synuclein mRNA expression ([2]; treatment alone vs control) [fold] | LXRα protein levels in the nucleus [3] | 27-OHC-induced increase in α-synuclein protein levels [1] | basal α-synuclein expression levels ([1]; treatment alone vs control) | 27-OHC-induced increase in α-synuclein mRNA [2] | α-synuclein mRNA levels ([2]; treatment alone vs control) | 27-OHC-induced increase in LXRα in the nucleus [3]
1 | C[C@@H](CO)CCC[C@@H](C)[C@H]1CC[C@H]2[C@@H]3CC=C4C[C@@H](O)CC[C@]4(C)[C@H]3CC[C@]12C [27-OHC, 27-hydroxycholesterol] | 2.3 | 9 | increases |  |  |  |  | 
2 | CC(C)CCC[C@@H](C)[C@H]1CC[C@H]2[C@@H]3C[C@@H]4O[C@@]45C[C@@H](OS(=O)(=O)O)CC[C@]5(C)[C@H]3CC[C@]12C [ECHS, 5α,6α-epoxycholesterol-3-sulfate] |  |  | reduced | significantly attenuated | does not produce any effect | marked attenuation | no effect | significantly attenuated
3 | Cl.O=C(O)Cc1cccc(OCCCN(Cc2cccc(C(F)(F)F)c2Cl)CC(c2ccccc2)c2ccccc2)c1 [GW3965, 3-[3-[N-(2-Chloro-3-trifluoromethylbenzyl)-(2,2-diphenylethyl)amino]propyloxy]phenylacetic acid hydrochloride] | 3 | 10 | more pronounced increase | accentuates |  | not mRNA levels |  | to the same extent
